US20080090805A1, “CB-1 MODULATING COMPOUNDS AND THEIR USE” (ACADIA PHARMACEUTICALS INC., priority 2005, published 2008)
Like-named read-outs stand apart in the source and are kept apart here.

Biological target: CB1 (mutant) (Homo sapiens, UniProt P21554)
Assay: R-SAT functional receptor assay, CB1 (mutant, truncated after amino acid 417)
Assay type: cell-based
Conditions: R-SAT CB1; for Emax / % Inhibition: receptor form not stated, relative to SR141716 (100%)
[1] = Appendix A, receptor form (mutant or wild-type) not stated, read-out: pIC50 (converted)
[2] = Appendix A, read-out: % Inhibition
[3] = pIC50, Appendix A, receptor form (mutant or wild-type) not stated
[4] = read-out: % Inhibition, Appendix A

CB1 (mutant), sequence (P21554 1-417, change not shown): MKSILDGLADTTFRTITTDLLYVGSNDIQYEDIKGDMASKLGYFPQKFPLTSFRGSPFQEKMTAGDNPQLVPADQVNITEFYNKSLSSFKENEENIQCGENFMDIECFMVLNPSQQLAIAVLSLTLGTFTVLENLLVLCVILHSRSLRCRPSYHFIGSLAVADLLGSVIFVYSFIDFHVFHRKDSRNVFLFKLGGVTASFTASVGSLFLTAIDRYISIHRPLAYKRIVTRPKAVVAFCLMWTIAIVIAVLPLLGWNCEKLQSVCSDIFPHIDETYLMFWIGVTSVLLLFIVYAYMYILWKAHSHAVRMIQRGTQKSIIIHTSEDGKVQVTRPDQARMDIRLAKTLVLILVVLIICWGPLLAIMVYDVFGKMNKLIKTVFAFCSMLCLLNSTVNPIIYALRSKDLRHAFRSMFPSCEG

Cc1ccc(CNC(=O)c2ccc3c(c2)N=C(c2ccc(F)cc2)c2ccccc2S3)o1 [drawing 577]
IC50 [1]: 3.16 nM | Emax [2]: 65%

O=C(NN1CCCCCC1)c1ccc2c(c1)N=C(c1ccccc1F)c1ccccc1S2 [drawing 578]
IC50 [1]: 50.1 nM | Emax [2]: 87%

O=C(NCc1cccc(Cl)c1)c1ccc2c(c1)N=C(c1ccc(Cl)cc1)c1ccccc1S2 [drawing 579]
IC50 [1]: 3.16 nM | Emax [2]: 112%

CC(C)CNC(=O)c1ccc2c(c1)N=C(c1ccsc1)c1ccccc1S2 [drawing 581]
IC50 [1]: 3.16 nM | Emax [2]: 90%

CC(NC(=O)c1ccc2c(c1)N=C(c1cccc(Cl)c1)c1ccccc1S2)c1ccccc1 (centres unmarked) [drawing 582]
IC50 [1]: 50.1 nM | Emax [2]: 87%

O=C(NCc1ccco1)c1ccc2c(c1)N=C(c1cccc(Cl)c1)c1ccccc1S2 [drawing 583]
IC50 [1]: 3.16 nM | Emax [2]: 100%

O=C(NCc1ccncc1)c1ccc2c(c1)N=C(c1ccc(Br)cc1)c1ccccc1S2 [drawing 586]
Emax [2]: 84% | IC50 [3]: 50.1 nM

CC(CNC(=O)c1ccc2c(c1)N=C(c1cccc(Cl)c1)c1ccccc1S2)c1ccccc1 (centres unmarked) [drawing 587]
IC50 [1]: 3.16 nM | Emax [2]: 112%

O=C(Cc1ccccc1)NNC(=O)c1ccc2c(c1)N=C(c1ccc(Cl)cc1)c1ccccc1S2 [drawing 588]
IC50 [1]: 50.1 nM | Emax [2]: 85%

O=C(NCc1ccc(F)cc1)c1ccc2c(c1)N=C(c1ccc(Cl)cc1)c1ccccc1S2 [drawing 589]
IC50 [1]: 3.16 nM | Emax [2]: 106%

O=C(NCc1ccc(F)cc1)c1ccc2c(c1)N=C(C1CCCCC1)c1ccccc1S2 [drawing 591]
IC50 [1]: 3.16 nM | Emax [2]: 102%

O=C(NCc1cccs1)c1ccc2c(c1)N=C(c1cccc(F)c1)c1ccccc1S2 [drawing 593]
pIC50 (Appendix A, receptor form (mutant or wild-type) not stated): 8.5 | % Inhibition (Appendix A): 93%

O=C(NCc1ccccc1Cl)c1ccc2c(c1)N=C(c1ccccc1)c1ccccc1S2 [drawing 594]
IC50 [1]: 50.1 nM | Emax [2]: 86%

O=C(NCc1cccs1)c1ccc2c(c1)N=C(c1cccc(F)c1)c1ccccc1S2 [drawing 595]
IC50 [1]: 3.16 nM | Emax [2]: 100%

CCOCCNC(=O)c1ccc2c(c1)N=C(c1ccc(F)cc1)c1ccccc1S2 [drawing 596]
IC50 [1]: 50.1 nM | Emax [2]: 94%

O=C(NN1CCCCCC1)c1ccc2c(c1)N=C(c1cccc(Cl)c1)c1ccccc1S2 [drawing 597]
IC50 [1]: 3.98 nM | Emax [2]: 95%

O=C(NC1CCCCC1)c1ccc2c(c1)N=C(c1ccccn1)c1ccccc1S2 [drawing 598]
Emax [2]: 112% | IC50 [3]: 50.1 nM

Cc1ccsc1C1=Nc2cc(C(=O)NCCCC(F)(F)F)ccc2Sc2ccccc21 [drawing 599]
IC50 [1]: 3.98 nM | Emax [2]: 111%

O=C(NCCc1ccccc1)c1ccc2c(c1)N=C(c1ccccc1F)c1ccccc1S2 [drawing 600]
IC50 [1]: 50.1 nM | Emax [2]: 98%

O=C(NCCCC(F)(F)F)c1ccc2c(c1)N=C(c1ccc(Cl)cc1)c1ccccc1S2 [drawing 601]
IC50 [1]: 3.98 nM | Emax [2]: 105%

O=C(NCc1ccccc1Br)c1ccc2c(c1)N=C(c1ccccc1F)c1ccccc1S2 [drawing 602]
IC50 [1]: 50.1 nM | Emax [2]: 65%

O=C(NCc1cccc(Cl)c1)c1ccc2c(c1)N=C(c1cccc(Cl)c1)c1ccccc1S2 [drawing 603]
IC50 [1]: 3.98 nM | Emax [2]: 112%

CCOCCNC(=O)c1ccc2c(c1)N=C(c1ccc(Cl)cc1)c1ccccc1S2 [drawing 604]
IC50 [1]: 50.1 nM | Emax [2]: 92%

O=C(NCCC(F)(F)F)c1ccc2c(c1)N=C(c1ccsc1)c1ccccc1S2 [drawing 607]
Emax [2]: 97% | IC50 [3]: 3.98 nM

O=C(NCc1ccccc1Br)c1ccc2c(c1)N=C(c1ccc(Cl)cc1)c1ccccc1S2 [drawing 608]
IC50 [1]: 50.1 nM | Emax [2]: 94%

CC(C)CNC(=O)c1ccc2c(c1)N=C(c1cccc(Cl)c1)c1ccccc1S2 [drawing 609]
IC50 [1]: 3.98 nM | Emax [4]: 116%

O=C(NN1CCCCC1)c1ccc2c(c1)N=C(N1CCCCC1)c1ccccc1S2 [drawing 610]
IC50 [1]: 50.1 nM | Emax [2]: 104%

O=C(NCc1ccc(F)cc1)c1ccc2c(c1)N=C(N1CCCCC1)c1ccccc1S2 [drawing 611]
IC50 [1]: 3.98 nM | Emax [2]: 80%

O=C(NCc1ccccn1)c1ccc2c(c1)N=C(c1ccc(Br)cc1)c1ccccc1S2 [drawing 612]
IC50 [1]: 50.1 nM | Emax [2]: 90%

CC(C)CNC(=O)c1ccc2c(c1)N=C(c1ccc(Cl)cc1F)c1ccccc1S2 [drawing 613]
IC50 [1]: 3.98 nM | Emax [2]: 110%

O=C(NCCCc1ccccc1)c1ccc2c(c1)N=C(c1cccc(Cl)c1)c1ccccc1S2 [drawing 615]
IC50 [1]: 3.98 nM | Emax [2]: 110%

O=C(NCCCc1ccccc1)c1ccc2c(c1)N=C(c1ccccc1)c1ccccc1S2 [drawing 617]
IC50 [1]: 3.98 nM | Emax [2]: 111%

Cc1ccsc1C1=Nc2cc(C(=O)NC3CCC(F)(F)CC3)ccc2Sc2ccccc21 [drawing 620]
Emax [2]: 76% | IC50 [3]: 63.1 nM

O=C(NCc1ccco1)c1ccc2c(c1)N=C(c1ccc(Cl)s1)c1ccccc1S2 [drawing 621]
IC50 [1]: 3.98 nM | Emax [2]: 118%

O=C(NCc1ccccc1Cl)c1ccc2c(c1)N=C(c1ccccc1F)c1ccccc1S2 [drawing 622]
Emax [2]: 72% | IC50 [3]: 63.1 nM

Cc1ccc(CNC(=O)c2ccc3c(c2)N=C(c2cccc(Cl)c2)c2ccccc2S3)o1 [drawing 623]
IC50 [1]: 5.01 nM | Emax [2]: 74%

O=C(NN1CCCCCC1)c1ccc2c(c1)N=C(c1ccc(Cl)cc1)c1ccccc1S2 [drawing 624]
IC50 [1]: 63.1 nM | Emax [2]: 103%

O=C(NCCC(F)(F)F)c1ccc2c(c1)N=C(c1cccc(F)c1)c1ccccc1S2 [drawing 625]
IC50 [1]: 5.01 nM | Emax [2]: 85%

CC(C)CNC(=O)c1ccc2c(c1)N=C(c1ccccc1F)c1ccccc1S2 [drawing 627]
IC50 [1]: 5.01 nM | Emax [2]: 118%

O=C(NCCc1ccc(Cl)cc1)c1ccc2c(c1)N=C(N1CCC(F)(F)CC1)c1ccccc1S2 [drawing 628]
IC50 [1]: 63.1 nM | Emax [2]: 99%

CC(C)CNC(=O)c1ccc2c(c1)N=C(c1cccc(F)c1)c1ccccc1S2 [drawing 629]
IC50 [1]: 5.01 nM | Emax [2]: 112%

CCCCNC(=O)c1cc2c(cc1C)Sc1ccccc1C(c1ccc(Cl)cc1)=N2 [drawing 630]
Emax [2]: 94% | IC50 [3]: 63.1 nM

O=C(NCCc1ccc(Cl)cc1)c1ccc2c(c1)N=C(c1ccc(Cl)cc1)c1ccccc1S2 [drawing 631]
IC50 [1]: 5.01 nM | Emax [2]: 104%

CCCCNC(=O)c1ccc2c(c1)N=C(c1ccc(Cl)cn1)c1ccc(F)cc1S2 [drawing 632]
IC50 [1]: 63.1 nM | Emax [2]: 95%

CCCCNC(=O)c1ccc2c(c1)N=C(c1ccc(Cl)s1)c1ccccc1S2 [drawing 633]
IC50 [1]: 5.01 nM | Emax [2]: 92%

CC(NC(=O)c1ccc2c(c1)N=C(C1CCCCC1)c1ccccc1S2)c1ccccc1 (centres unmarked) [drawing 634]
IC50 [1]: 63.1 nM | % Inhibition (Appendix A): 87%

CCN(CCNC(=O)c1ccc2c(c1)N=C(c1ccc(Cl)cc1)c1ccccc1S2)c1ccccc1 [drawing 635]
IC50 [1]: 5.01 nM | Emax [2]: 102%

O=C(NCc1cccc(Cl)c1)c1ccc2c(c1)N=C(C1CCCCC1)c1ccccc1S2 [drawing 637]
IC50 [1]: 5.01 nM | Emax [2]: 112%

O=C(NCCc1cccnc1)c1ccc2c(c1)N=C(c1ccc(Cl)cc1)c1ccccc1S2 [drawing 638]
IC50 [1]: 63.1 nM | Emax [2]: 116%

CC(CNC(=O)c1ccc2c(c1)N=C(c1ccc(F)cc1)c1ccccc1S2)c1ccccc1 (centres unmarked) [drawing 639]
Emax [2]: 98% | IC50 [3]: 5.01 nM

CCCNC(=O)c1ccc2c(c1)N=C(c1cccc(Cl)c1)c1ccccc1S2 [drawing 641]
IC50 [1]: 5.01 nM | Emax [2]: 107%

CC(C)CNC(=O)c1ccc2c(c1)N=C(c1ccc(Cl)c(Cl)c1)c1ccccc1S2 [drawing 643]
IC50 [1]: 5.01 nM | Emax [2]: 108%

O=C(NCCCc1ccccc1)c1ccc2c(c1)N=C(c1ccc(Cl)cc1)c1ccccc1S2 [drawing 645]
Emax [2]: 106% | IC50 [3]: 5.01 nM

O=C(NCc1ccccc1)c1ccc2c(c1)N=C(c1ccc(Cl)cc1)c1ccccc1S2 [drawing 647]
IC50 [1]: 5.01 nM | Emax [2]: 105%

O=C(NCc1cccc(Cl)c1)c1ccc2c(c1)N=C(N1CCCCC1)c1cc(F)ccc1S2 [drawing 649]
IC50 [1]: 5.01 nM | Emax [2]: 107%

O=C(NCc1cccc(Cl)c1)c1ccc2c(c1)N=C(c1cccc(Cl)c1)c1cc(F)ccc1S2 [drawing 651]
IC50 [1]: 5.01 nM | Emax [2]: 107%

Cc1ccsc1C1=Nc2cc(C(=O)NC3CCCC3)ccc2Sc2ccccc21 [drawing 652]
IC50 [1]: 63.1 nM | Emax [2]: 81%

COc1cccc(C2=Nc3cc(C(=O)NC4CCC(F)(F)CC4)ccc3Sc3ccccc32)n1 [drawing 653]
Emax [2]: 104% | IC50 [3]: 6.31 nM

Cc1csc(CNC(=O)c2ccc3c(c2)N=C(c2ccc(Cl)s2)c2ccccc2S3)c1 [drawing 655]
IC50 [1]: 6.31 nM | Emax [2]: 94%

CCCCNC(=O)c1ccc2c(c1)N=C(c1ccc(Cl)cc1)c1sccc1S2 [drawing 657]
IC50 [1]: 6.31 nM | Emax [2]: 122%

O=C(NC1CCC(F)(F)CC1)c1ccc2c(c1)N=C(c1cccc(F)c1)c1ccccc1S2 [drawing 659]
IC50 [1]: 6.31 nM | Emax [2]: 77%

O=C(NN1CCCCC1)c1ccc2c(c1)N=C(c1ccc(F)cn1)c1ccccc1S2 [drawing 660]
IC50 [1]: 63.1 nM | Emax [2]: 92%

Cc1csc(CNC(=O)c2ccc3c(c2)N=C(c2sccc2C)c2ccccc2S3)c1 [drawing 661]
IC50 [1]: 6.31 nM | Emax [2]: 102%

O=C(NCCC(F)(F)F)c1ccc2c(c1)N=C(c1ccc(Cl)s1)c1ccccc1S2 [drawing 663]
IC50 [1]: 6.31 nM | Emax [2]: 95%

CC(C)NC(=O)c1ccc2c(c1)N=C(c1ccc(Cl)cc1F)c1ccccc1S2 [drawing 664]
IC50 [1]: 63.1 nM | Emax [2]: 101%

CCCCNC(=O)c1ccc2c(c1)N=C(c1ccc(Cl)c(Cl)c1)c1ccccc1S2 [drawing 665]
Emax [4]: 109%
